Source: patent publication US20250346903A1, “USE OF CONJUGATES OF MICRORNA AND CARDIAC TARGETING PEPTIDES FOR TREATING HEART FAILURE” (Georgetown University, priority 2022, published 2025)

Tests used:
Connexin 43 (CNX43) = assay: CNX43 phosphorylation in HCMs (immunostaining); assay type: cell-based, human; conditions: HCMs treated with PMA as a control
Procedure: Gap junction protein Connexin 43 (CNX43) is a known downstream target of PKC activity in cardiomyocytes. Thus, the effects of Ang2/PE and the CTP-microRNA106a on CNX43 in HCMs were studied. CNX43 is phosphorylated on serine 386 by PKCα. In untreated HCMs, gap junctions are prevalent (FIG. 14, Panel A), although only a few junctions are positive for phosphorylation of CNX43 (FIG. 14, Panel B). […] Phosphorylated CNX43 becomes widespread as HCMs are treated with Ang2/PE for 24 hours (FIG. 14, Panels E and F).

PKC = PKC localization in HCMs (anti-PKCα staining); assay type: cell-based, human; conditions: PMA 30 minutes
From the text: One potential mechanism of increased PLCβ1 expression is increased PKC activity. Thus, PKC localization was studied in treated HCMs. […] In HCMs treated with Ang2/PE, PKC was translocated to the plasma membrane (FIG. 12, Panel C).

GRK2 = assay: Western blot of GRK2 in PE/Ang2-treated HCMs; assay type: cell-based, human; conditions: HCMs PE/Ang2 72 hours, then miRNA transfection
Procedure: The effects of miRNA17, miRNA20a, miRNA93, and miRNA106a on GRK2 signaling were assessed in HCMs treated with PE/Ang2. GRK2 has been identified to cause heart failure when mis-expressed.
The HCMs were subjected to 72 hours of PE/Ang2 treatment, and were subsequently treated with miRNA17, miRNA20a, miRNA93, or miRNA106a, or with the CTP-miRNA106a conjugate.

NfκB response element = NfκB response element luciferase assay in HCMs; assay type: cell-based, human; conditions: Ang2/PE 24 hours, miRNAs transfected
From the text: Once in the nucleus NfκB binds to an NfκB response element to initiate transcription of downstream genes. To study how the CTP-miRNA106a conjugate can impact this effect, a plasmid containing an NfκB response element driving luciferase production (Promega, Inc) was used to generate HCMs expressing this NfκB luciferase response element. […] Moreover, the effect of miRNA106a on impacting Ang2/PE-induced luciferase expression in HCMs was compared to miRNA17, miRNA20a, and miRNA93.

HDAC4 [1] = assay: Western blot of HDAC4 in PE/Ang2-treated HCMs; assay type: cell-based, human; conditions: 200 nM miRNA transfected, within 72 hours
Procedure: (§1) Human cardiomyocytes (HCMs) were subjected to 200 nM phenylephrine (PE) and 10 nM angiotensin 2 (Ang2) to induce hypertrophy (initial stages of heart failure). The HCMs were treated with PE/Ang2 for 24, 48, 72, 96, or 144 hours. Using TransIT-X2 transfection reagent, 200 nM of each miRNA, or in combination, was introduced into PE/Ang2-treated HCMs, followed by analyses of hypertrophic morphology and heart failure gene/protein expression.
(§2) The CTP-miRNA106a conjugate suppressed translation of each protein, as confirmed in three separate experiments. A significant difference was observed between each of the CTP-miRNA106a conjugate-treated set and PE/Ang2-treated HCMs after 144 hours, and no significant difference was observed between each of the CTP-miRNA106a conjugate-treated HCMs and untreated HCMs.

CaMKIIδ = assay: Western blot of CaMKIIδ in PE/Ang2-treated HCMs; assay type: cell-based, human; conditions: 200 nM miRNA transfected, within 72 hours
Procedure: as §1, §2

3′UTR of PLCβ1 = assay: PLCβ1 3′UTR luciferase assay in HEK293 cells; assay type: cell-based, human; conditions: miRNA transfected 24 hours after plasmid
IL-1β = assay: FACS of IL-1β expressing HCMs; assay type: cell-based, human; conditions: miR106a (without CTP) transfected, then Ang2/PE
From the text: (§3) To identify if activation of the NfκB pathway by Ang2/PE led to expression of genes that augment hypertrophy and heart failure, HCMs treated with Ang2/PE or treated with both Ang2/PE and the CTP-miRNA106a conjugated were compared to untreated control HCMs by FACS. […] In summary, the CTP-miRNA106a conjugated suppressed NfκB signaling activated by Ang2/PE.

CaMKIIδ 3′UTR = assay: 3′UTR-luciferase assay, CaMKIIδ; assay type: cell-based, human; conditions: miRNA106a with transfection reagent
IL-6 = assay: FACS of IL-6 expressing HCMs; assay type: cell-based, human; conditions: miR106a transfected, then Ang2/PE
From the text: as §3

HCMs = assay: Mitochondrial membrane potential, JC-1 staining of HCMs; assay type: cell-based, human; conditions: 200 nM miRNA106a transfected, 72 hours
Procedure: The effects of miRNA106a on mitochondrial health was assessed using the mitochondrial membrane potential (MMP) probe JC-1 staining. Healthy MMP is observed as JC-1 forms J-aggregates that fluoresce red (˜594 nm) while unhealthy MMP is recognized as green (˜488 nm) JC-1 monomers.

HDAC4 3′UTR = assay: 3′UTR-luciferase assay, HDAC4; assay type: cell-based, human; conditions: miRNA106a with transfection reagent
[2] = system: Human cardiomyocytes (HCMs); assay: Hypertrophic morphology / cell size of PE/Ang2-treated HCMs; assay type: cell-based; conditions: 200 nM transfection, 72 hours, no PE/Ang2
Procedure: as §1
(§4) HDAC4 localization was also rescued by the CTP-miRNA106a conjugate. HDAC4 is nuclear in untreated HCMs (see FIG. 4, Panel C), but CaMKIIδ phosphorylation promotes HDAC4 movement into the cytoplasm (see FIG. 4, Panel D) (Hohl et al., 2013).

GRK2 3′UTR = assay: 3′UTR-luciferase assay, GRK2 (control); assay type: cell-based, human; conditions: miRNA106a with transfection reagent; control without target sequence
HDAC4 [3] = assay: HDAC4 localization by immunofluorescence in HCMs; assay type: cell-based, human; conditions: HCMs PE/Ang2 72 hours, treatment 24 hours
From the text: as §4

TNF-α = assay: FACS of TNF-α expressing HCMs; assay type: cell-based, human; conditions: miR106a transfected, then Ang2/PE
From the text: as §3

| Compound | phosphorylated CNX43 (Connexin 43 (CNX43)) | PKC localization (PKC) | GRK2 expression (GRK2) | NfκB response element luciferase expression (NfκB response element) | HDAC4 overexpression induced by PE/Ang2 (HDAC4 [1]) | CaMKIIδ overexpression induced by PE/Ang2 (CaMKIIδ) | decrease of luciferase activity (3′UTR of PLCβ1) | IL-1β expression (IL-1β) | CaMKIIδ 3′UTR luciferase expression (CaMKIIδ 3′UTR) | IL-6 expression (IL-6) | JC-1 red:green ratio versus untreated (HCMs) | HDAC4 3′UTR luciferase expression (HDAC4 3′UTR) | growth in size (hypertrophy) in response to miRNA106a alone [2] | GRK2 3′UTR luciferase expression (GRK2 3′UTR) | HDAC4 localization (HDAC4 [3]) | TNF-α expression (TNF-α) |
| --- | --- | --- | --- | --- | --- | --- | --- | --- | --- | --- | --- | --- | --- | --- | --- | --- |
| CCCCCCCCCCCCCC(=O)O[C@@H]1[C@@H](C)[C@@]2(O)[C@@H](C=C(CO)C[C@]3(O)C(=O)C(C)=C[C@@H]23)[C@@H]2C(C)(C)[C@]12OC(C)=O [PMA, phorbal myristate acetate] | the phosphorylation patterns are more robust | localized to the plasma membrane | – | – | – | – | – | – | – | – | – | – | – | – | – | – |
| miRNA17: microRNA, RNA sequence CAAAGUGCUUACAGUGCAGGUAG (SEQ ID NO 2) (listed as RNA, chemistry not given here) | – | – | returned to baseline levels | suppressed luciferase expression significantly | suppressed | suppressed | – | – | – | – | – | – | – | – | – | – |
| miRNA20a: microRNA, RNA sequence UAAAGUGCUUAUAGUGCAGGUAG (SEQ ID NO 3) (listed as RNA, chemistry not given here) | – | – | returned to baseline levels | lowered luciferase expression | suppressed | suppressed | – | – | – | – | – | – | – | – | – | – |
| miRNA93: microRNA, RNA sequence CAAAGUGCUGUUCGUGCAGGUAG (SEQ ID NO 4) (listed as RNA, chemistry not given here) | – | – | returned to baseline levels | lowered luciferase expression | suppressed | suppressed | ~50% | – | – | – | – | – | – | – | – | – |
| miRNA106a: microRNA, RNA sequence AAAAGUGCUUACAGUGCAGGUAG (SEQ ID NO 1) (chemistry not given here) | – | – | returned to baseline levels | suppressed luciferase expression significantly | suppressed | suppressed | ~80% | reversal of IL-1ß expression back to normal, untreated levels | targets the 3′UTRs of both CaMKIIδ and HDAC4 | very similar results as IL-1β | no significant difference in red:green ratios | targets the 3′UTRs of both CaMKIIδ and HDAC4 | did not appear to grow in size | no change in luciferase expression | HDAC4 re-entry into the nucleus | very similar results as IL-1β |
